Consider four compounds from US8431704B2, “Quinoline or isoquinoline substituted P2X7 antagonists” (Janssen Pharmaceutica NV, priority 2008, dated 2013).

For one series, the target named is T1, hP2X7 (Homo sapiens, UniProt Q99572).
T1 construct: expressed in transfected cells; host or cells: 1321N1 astrocytoma cells
T1 sequence (Q99572 1-595): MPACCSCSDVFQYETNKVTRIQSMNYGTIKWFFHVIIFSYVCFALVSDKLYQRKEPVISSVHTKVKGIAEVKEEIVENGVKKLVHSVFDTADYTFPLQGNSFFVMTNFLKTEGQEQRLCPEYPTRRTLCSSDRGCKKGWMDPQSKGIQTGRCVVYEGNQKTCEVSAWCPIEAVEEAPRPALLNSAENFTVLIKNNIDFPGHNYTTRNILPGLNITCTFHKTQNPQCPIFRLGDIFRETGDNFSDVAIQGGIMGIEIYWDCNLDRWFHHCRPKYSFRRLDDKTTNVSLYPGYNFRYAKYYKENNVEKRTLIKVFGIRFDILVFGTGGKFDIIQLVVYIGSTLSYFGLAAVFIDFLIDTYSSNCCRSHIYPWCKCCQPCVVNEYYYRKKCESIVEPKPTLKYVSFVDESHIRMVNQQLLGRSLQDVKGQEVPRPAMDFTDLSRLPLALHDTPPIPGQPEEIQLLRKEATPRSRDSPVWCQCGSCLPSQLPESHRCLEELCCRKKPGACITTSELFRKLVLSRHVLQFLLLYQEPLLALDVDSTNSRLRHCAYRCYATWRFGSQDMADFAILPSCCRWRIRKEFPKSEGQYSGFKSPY
Description: P2X7 antagonism: ligand-induced Ca2+ flux in 1321N1 astrocytoma cells overexpressing hP2X7. The note with it: pIC50 = -log(IC50), read-out: hP2RX7pIC50 (mean pIC50 values) (converted). The class given is cell-based. Summed up:
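Intracellular Ca2+ tracked with a quenched Ca2+-sensitive fluorescent dye kit (excitation 488 nm, emission 510-560 nm) in 1321N1 cells, before and after agonist addition in presence of antagonist. Effects expressed as % control and IC50.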

The term melting point denotes the temperature of the solid-liquid transition.

As for `O=C(NCC(c1cnc(C(F)(F)F)nc1)N1CCCCC1)c1cccc2ncccc12` (centres unmarked) [Compound 35], the melting point was 183.6 °C. Also, the IC50 at hP2X7 was 21.4 nM.
Compound `CC1CN(c2ccc3c(C(=O)NCC(c4cnc(C(F)(F)F)nc4)N4CCC(F)(F)CC4)cccc3n2)CC(C)O1` (centres unmarked) [Compound 140] returned a melting point of 191.5 °C. For the same compound, the IC50 on hP2X7 is 91.2 nM.
In turn, `O=C(NCC(c1cnc(C(F)(F)F)nc1)N1CCC(F)(F)CC1)c1cccc2nc(NCCO)ccc12` (centres unmarked) [Compound 39] registered a melting point of 125.3 °C. Besides, the IC50 at hP2X7 is 33.9 nM.
`O=C(NCC(c1cnc(C(F)(F)F)nc1)N1CCOCC1)c1cccc2nc(N3CCNCC3)ccc12` (centres unmarked) [Compound 102]: the melting point turned out to be 234.3 °C. Also, the IC50 at hP2X7 was 72.4 nM.
